{"source": "patent US20020137929A1", "about": "“1 - (3-heterocyclylphenyl) isothiourea, -isourea, -guanidine and -amidine herbicidal agents” (Intellectual Property Department, BASF Aktiengesellschaft, priority 1998, published 2002)", "key": {"[1]": {"test_system": "ECHORC (Watergrass (Calif.))", "assay": "Preemergence weed control under flooded paddy conditions", "assay_type": "in vivo, Echinochloa oryzoides", "details": "rated 3-4 weeks after treatment", "procedure,_shortened": "(§1)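 Silt loam, seeds in top 0.5 cm; flood held 1.5-3 cm; test cpd as acetone/water 50/50 into flood water, ~0.0313-0.500 kg/ha a.i.; greenhouse 3-4 wk; visual 0-9 score vs control.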"}, "ORYSAT (Rice, Tebonnet)": {"test_system": "ORYSAT (Rice, Tebonnet)", "assay": "Preemergence herbicidal evaluation", "assay_type": "in vivo, Oryza sativa, (L.) Tebonnet", "details": "rated 4-5 weeks after treatment", "procedure,_shortened": "(§2)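 Greenhouse preemergence test: seed-soil mix sown on ~1 inch soil; aqueous acetone spray at equivalent of ~0.0156–0.500 kg/ha; greenhouse-held and watered; scored 0–9 visually at 4–5 weeks.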"}, "CYPSE (Flatsedge) [2]": {"test_system": "CYPSE (Flatsedge)", "assay": "Postemergence weed control under flooded paddy conditions", "assay_type": "in vivo, Cyperus serotinus", "details": "postemergence weeds, rated 3 to 4 weeks after treatment", "procedure,_shortened": "(§3)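 Weeds 3 to 5 cm tall and rice seedlings at the 1.5 to 2.5 leaf stage were flooded, with water held 1.5 to 3 cm above the soil. Compounds in 50/50 v/v aqueous/acetone went into the flood water at about 0.0313 to 0.500 kg/ha. Visual 0-9 ratings versus control were made 3 to 4 weeks later.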"}, "[3]": {"test_system": "ECHORC (Watergrass (Calif.))", "assay": "Postemergence weed control under flooded paddy conditions", "assay_type": "in vivo, Echinochloa oryzoides", "details": "postemergence weeds, rated 3 to 4 weeks after treatment", "procedure,_shortened": "as §3"}, "CASOB (Sicklepod)": {"test_system": "CASOB (Sicklepod)", "assay": "Postemergence herbicidal evaluation", "assay_type": "in vivo, Cassia obtusifolia", "details": "postemergence", "procedure,_shortened": "(§4)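 Each compound, dispersed in an acetone/water mix (50/50) carrying 0.5% TWEEN 20, is nozzle-sprayed at 40 psi on approximately two-week-old seedlings at about 0.0156–0.500 kg/ha. Plants are assessed 4–5 weeks afterward on a 0–9 scale relative to control; duplicate tests are averaged.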"}, "AMBEL (Ragweed, Common)": {"test_system": "AMBEL (Ragweed, Common)", "assay": "Preemergence herbicidal evaluation", "assay_type": "in vivo, Ambrosia artemisifolia", "details": "rated 4-5 weeks after treatment", "procedure,_shortened": "as §2"}, "CYPSE (Flatsedge) [4]": {"test_system": "CYPSE (Flatsedge)", "assay": "Preemergence weed control under flooded paddy conditions", "assay_type": "in vivo, Cyperus serotinus", "details": "rated 3-4 weeks after treatment", "procedure,_shortened": "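Ratings on a 0-9 visual scale cover stand, vigor, malformation, size, chlorosis and overall appearance relative to a control, taken three to four weeks post-treatment. Application was into flood water over freshly sown silt loam at roughly 0.0313 to 0.500 kg/ha.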"}, "GALAP (Galium)": {"test_system": "GALAP (Galium)", "assay": "Postemergence herbicidal evaluation", "assay_type": "in vivo, Galium aparine", "details": "postemergence", "procedure,_shortened": "as §4"}, "[5]": {"test_system": "CHEAL (Lambsquarters, Common)", "assay": "Preemergence herbicidal evaluation", "assay_type": "in vivo, Chenopodium album", "details": "rated 4-5 weeks after treatment", "procedure,_shortened": "as §2"}, "[6]": {"test_system": "TRZAWR (Wheat, Winter, cv Riband)", "assay": "Preemergence herbicidal evaluation", "assay_type": "in vivo, Triticum aestivum", "details": "rated 4-5 weeks after treatment", "procedure,_shortened": "as §2"}, "[7]": {"test_system": "IPOHE (Morningglory, Ivyleaf)", "assay": "Preemergence herbicidal evaluation", "assay_type": "in vivo, Ipomoea hederacea", "details": "rated 4-5 weeks after treatment", "procedure,_shortened": "as §2"}, "CYPIR (Rice Flatsedge)": {"test_system": "CYPIR (Rice Flatsedge)", "assay": "Preemergence weed control under flooded paddy conditions", "assay_type": "in vivo, Cyperus iria", "details": "rated 3-4 weeks after treatment", "procedure,_shortened": "as §1"}, "ZEAMX (Corn, Field) [8]": {"test_system": "ZEAMX (Corn, Field)", "assay": "Postemergence herbicidal evaluation", "assay_type": "in vivo, Zea mays", "details": "postemergence", "procedure,_shortened": "as §4"}, "ZEAMX (Corn, Field) [9]": {"test_system": "ZEAMX (Corn, Field)", "assay": "Preemergence herbicidal evaluation", "assay_type": "in vivo, Zea mays", "details": "rated 4-5 weeks after treatment", "procedure,_shortened": "as §2"}}}
{"smiles": "C=CCOC(=O)CC1SC(=Nc2cc(-n3c(=O)cc(C(F)(F)F)n(C)c3=O)c(F)cc2Cl)N(CC=C)C1=O", "note": "(stereo not shown) [Compound 65, Allyl 3-allyl-2-{(2-chloro-5-[3,6-dihydro-3-methyl-2,6-dioxo-4-(trifluoromethyl)-1(2H)-pyrimidinyl]-4-fluorophenyl}imino}-4-oxo-5-thiazolidineacetate]", "values": [{"measurement": "ECHORC herbicidal effect rating", "setting": "[1]; 0.0313 kg/ha", "value": 5.0}, {"measurement": "ECHORC herbicidal effect rating", "setting": "[1]; 0.0625 kg/ha", "value": 5.0}, {"measurement": "ECHORC herbicidal effect rating", "setting": "[1]; 0.1250 kg/ha", "value": 6.0}, {"measurement": "ECHORC herbicidal effect rating", "setting": "[1]; 0.2500 kg/ha", "value": 7.0}, {"measurement": "Preemergence herbicidal rating ORYSAT", "setting": "ORYSAT (Rice, Tebonnet); rate 0.0156 kg/ha", "value": 0.0}, {"measurement": "Preemergence herbicidal rating ORYSAT", "setting": "ORYSAT (Rice, Tebonnet); rate 0.0313 kg/ha", "value": 0.0}, {"measurement": "Preemergence herbicidal rating ORYSAT", "setting": "ORYSAT (Rice, Tebonnet); rate 0.0625 kg/ha", "value": 1.0}, {"measurement": "Preemergence herbicidal rating ORYSAT", "setting": "ORYSAT (Rice, Tebonnet); rate 0.1250 kg/ha", "value": 1.0}, {"measurement": "Preemergence herbicidal rating ORYSAT", "setting": "ORYSAT (Rice, Tebonnet); rate 0.2500 kg/ha", "value": 6.0}, {"measurement": "Herbicidal rating CYPSE", "setting": "CYPSE (Flatsedge) [2]; Rate 0.0313 kg/ha", "value": 0.0}, {"measurement": "Herbicidal rating CYPSE", "setting": "CYPSE (Flatsedge) [2]; Rate 0.0625 kg/ha", "value": 0.0}, {"measurement": "Herbicidal rating CYPSE", "setting": "CYPSE (Flatsedge) [2]; Rate 0.1250 kg/ha", "value": 0.0}, {"measurement": "Herbicidal rating CYPSE", "setting": "CYPSE (Flatsedge) [2]; Rate 0.2500 kg/ha", "value": 0.0}, {"measurement": "Herbicidal rating ECHORC", "setting": "[3]; Rate 0.0313 kg/ha", "value": 5.0}, {"measurement": "Herbicidal rating ECHORC", "setting": "[3]; Rate 0.0625 kg/ha", "value": 5.0}, {"measurement": "Herbicidal rating ECHORC", "setting": "[3]; Rate 0.1250 kg/ha", "value": 6.0}, {"measurement": "Herbicidal rating ECHORC", "setting": "[3]; Rate 0.2500 kg/ha", "value": 7.0}, {"measurement": "CASOB herbicidal rating", "setting": "CASOB (Sicklepod); rate 0.0158 kg/ha", "value": 0.0}, {"measurement": "CASOB herbicidal rating", "setting": "CASOB (Sicklepod); rate 0.0315 kg/ha", "value": 2.0}, {"measurement": "CASOB herbicidal rating", "setting": "CASOB (Sicklepod); rate 0.0630 kg/ha", "value": 3.0}, {"measurement": "Preemergence herbicidal rating AMBEL", "setting": "AMBEL (Ragweed, Common); rate 0.0156 kg/ha", "value": 1.0}, {"measurement": "Preemergence herbicidal rating AMBEL", "setting": "AMBEL (Ragweed, Common); rate 0.0313 kg/ha", "value": 2.0}, {"measurement": "Preemergence herbicidal rating AMBEL", "setting": "AMBEL (Ragweed, Common); rate 0.0625 kg/ha", "value": 4.0}, {"measurement": "Preemergence herbicidal rating AMBEL", "setting": "AMBEL (Ragweed, Common); rate 0.1250 kg/ha", "value": 9.0}, {"measurement": "Preemergence herbicidal rating AMBEL", "setting": "AMBEL (Ragweed, Common); rate 0.2500 kg/ha", "value": 9.0}, {"measurement": "CYPSE herbicidal effect rating", "setting": "CYPSE (Flatsedge) [4]; 0.0313 kg/ha", "value": 0.0}, {"measurement": "CYPSE herbicidal effect rating", "setting": "CYPSE (Flatsedge) [4]; 0.0625 kg/ha", "value": 0.0}, {"measurement": "CYPSE herbicidal effect rating", "setting": "CYPSE (Flatsedge) [4]; 0.1250 kg/ha", "value": 0.0}, {"measurement": "CYPSE herbicidal effect rating", "setting": "CYPSE (Flatsedge) [4]; 0.2500 kg/ha", "value": 0.0}, {"measurement": "GALAP herbicidal rating", "setting": "GALAP (Galium); rate 0.0158 kg/ha", "value": 2.0}, {"measurement": "GALAP herbicidal rating", "setting": "GALAP (Galium); rate 0.0315 kg/ha", "value": 5.0}, {"measurement": "GALAP herbicidal rating", "setting": "GALAP (Galium); rate 0.0630 kg/ha", "value": 9.0}, {"measurement": "Preemergence herbicidal rating CHEAL", "setting": "[5]; rate 0.0156 kg/ha", "value": 9.0}, {"measurement": "Preemergence herbicidal rating CHEAL", "setting": "[5]; rate 0.0313 kg/ha", "value": 9.0}, {"measurement": "Preemergence herbicidal rating CHEAL", "setting": "[5]; rate 0.0625 kg/ha", "value": 9.0}, {"measurement": "Preemergence herbicidal rating CHEAL", "setting": "[5]; rate 0.1250 kg/ha", "value": 9.0}, {"measurement": "Preemergence herbicidal rating CHEAL", "setting": "[5]; rate 0.2500 kg/ha", "value": 9.0}, {"measurement": "Preemergence herbicidal rating TRZAWR", "setting": "[6]; rate 0.0313 kg/ha", "value": 0.0}, {"measurement": "Preemergence herbicidal rating TRZAWR", "setting": "[6]; rate 0.0625 kg/ha", "value": 1.0}, {"measurement": "Preemergence herbicidal rating TRZAWR", "setting": "[6]; rate 0.1250 kg/ha", "value": 1.0}, {"measurement": "Preemergence herbicidal rating TRZAWR", "setting": "[6]; rate 0.2500 kg/ha", "value": 3.0}, {"measurement": "Preemergence herbicidal rating IPOHE", "setting": "[7]; rate 0.0156 kg/ha", "value": 0.0}, {"measurement": "Preemergence herbicidal rating IPOHE", "setting": "[7]; rate 0.0313 kg/ha", "value": 0.0}, {"measurement": "Preemergence herbicidal rating IPOHE", "setting": "[7]; rate 0.0625 kg/ha", "value": 1.0}, {"measurement": "Preemergence herbicidal rating IPOHE", "setting": "[7]; rate 0.1250 kg/ha", "value": 9.0}, {"measurement": "Preemergence herbicidal rating IPOHE", "setting": "[7]; rate 0.2500 kg/ha", "value": 7.0}, {"measurement": "CYPIR herbicidal effect rating", "setting": "CYPIR (Rice Flatsedge); 0.0313 kg/ha", "value": 6.0}, {"measurement": "CYPIR herbicidal effect rating", "setting": "CYPIR (Rice Flatsedge); 0.0625 kg/ha", "value": 7.0}, {"measurement": "CYPIR herbicidal effect rating", "setting": "CYPIR (Rice Flatsedge); 0.1250 kg/ha", "value": 7.0}, {"measurement": "CYPIR herbicidal effect rating", "setting": "CYPIR (Rice Flatsedge); 0.2500 kg/ha", "value": 8.0}, {"measurement": "ZEAMX herbicidal rating", "setting": "ZEAMX (Corn, Field) [8]; rate 0.0158 kg/ha", "value": 8.0}, {"measurement": "ZEAMX herbicidal rating", "setting": "ZEAMX (Corn, Field) [8]; rate 0.0315 kg/ha", "value": 8.0}, {"measurement": "ZEAMX herbicidal rating", "setting": "ZEAMX (Corn, Field) [8]; rate 0.0630 kg/ha", "value": 7.5}, {"measurement": "Preemergence herbicidal rating ZEAMX", "setting": "ZEAMX (Corn, Field) [9]; rate 0.0156 kg/ha", "value": 0.0}, {"measurement": "Preemergence herbicidal rating ZEAMX", "setting": "ZEAMX (Corn, Field) [9]; rate 0.0313 kg/ha", "value": 0.0}, {"measurement": "Preemergence herbicidal rating ZEAMX", "setting": "ZEAMX (Corn, Field) [9]; rate 0.0625 kg/ha", "value": 1.0}, {"measurement": "Preemergence herbicidal rating ZEAMX", "setting": "ZEAMX (Corn, Field) [9]; rate 0.1250 kg/ha", "value": 2.0}, {"measurement": "Preemergence herbicidal rating ZEAMX", "setting": "ZEAMX (Corn, Field) [9]; rate 0.2500 kg/ha", "value": 4.0}]}
